Measured values as given in patent US20230257376A1, “ROCK INHIBITOR, AND PREPARATION METHOD THEREFOR AND USE THEREOF” (WUHAN LL SCIENCE AND TECHNOLOGY DEVELOPMENT CO., LTD., priority 2020, published 2023).
pIC50: −log10 of the molar value.

Legend:
ROCK2 kinase = biological target: T1, ROCK2 kinase (Homo sapiens, UniProt O75116); experiment: In vitro evaluation of ROCK2 kinase activity (HTRF KinEASE-STK time-resolved fluorometric assay); type: biochemical; details: ROCK2 kinase 0.4 ng/μL, ATP 6.739 μM
T1 construct: purchased Invitrogen PV3759
Method: ROCK2 activity screening. ROCK2 activity was detected using a 96-well (Cisbio) time-resolved fluorometric assay. The assay for ROCK2 was performed in the following assay buffer: 5 mM MgCl2 (Sigma), 1 mM DTT (Sigma) and 1× kinase buffer. The kinase buffer was used for dilution. 7.5 μL of ROCK2 kinase (Invitrogen, PV3759) was added to a 96-well microplate to reach a final concentration of 0.4 ng/μL, and then 0.25 μL of test compound (DMSO content: 1% (volume fraction)) was added. The mixture was incubated at room temperature for 0.5 h. To start the reaction, the kinase buffer was used to mix ATP (Aladdin) and the substrate STK-substrate 2-biotin. 7.5 μL of the mixed solution was added to the microplate to reach final concentrations of 6.739 μM and 1 μM. The resulting mixture was incubated at room temperature for 2 h. 5 mL of detection buffer was mixed with STK antibody-Cryptate, and then an appropriate volume of the mixture was mixed with an equal volume of streptavidin-XL665. 10 μL of the resulting mixture was added to the microplate to stop the reaction. After further incubation for about 1 h, the microplate was read on a Molecular Devices SpectraMax i3x multifunctional microplate reader. The kinase buffer, the STK-substrate 2-biotin, the detection buffer, the STK antibody-Cryptate, and the streptavidin-XL665 were all from HTRF KinEASE-STK kit (Cisbio, 1000 tests, 61GSTXLA).

ROCK1 kinase = biological target: T2, ROCK1 kinase (Homo sapiens, UniProt Q13464); experiment: In vitro evaluation of ROCK1 kinase selectivity (HTRF KinEASE-STK time-resolved fluorometric assay); type: biochemical; details: ROCK1 kinase 0.4 ng/μL, ATP 3.53 μM
T2 construct: purchased Invitrogen
Method: ROCK1 activity was detected using a 96-well (Cisbio) time-resolved fluorometric assay. The assay for ROCK1 was performed in the following assay buffer: 5 mM MgCl2 (Sigma), 1 mM DTT (Sigma) and 1× kinase buffer. The kinase buffer was used for dilution. 7.5 μL of ROCK1 kinase (Invitrogen) was added to a 96-well microplate to reach a final concentration of 0.4 ng/μL, and then 0.25 μL of test compound (DMSO content: 1%) was added. The mixture was incubated at room temperature for 0.5 h. To start the reaction, the kinase buffer was also used to mix ATP (Aladdin) and the substrate STK-substrate 2-biotin. 7.5 μL of the mixed solution was added to the microplate to reach final concentrations of 3.53 μM and 1 μM. The resulting mixture was incubated at room temperature for 2 h. 5 mL of detection buffer was mixed with STK antibody-Cryptate, and then an appropriate volume of the mixture was mixed with an equal volume of streptavidin-XL665. 10 μL of the resulting mixture was added to stop the reaction. After further incubation for about 1 h, the microplate was read on a Molecular Devices SpectraMax i3x multifunctional microplate reader. The kinase buffer, the STK-substrate 2-biotin, the detection buffer, the STK antibody-Cryptate, and the streptavidin-XL665 were all from HTRF KinEASE-STK kit (Cisbio, 1000 tests, 61GSTXLA).

[1] = In vitro cytotoxicity assay in HepG2 cells using the CCK-8 method; type: cell-based; details: human
Method: In vitro cytotoxicity assay for the compounds disclosed herein was performed in HepG2 cells using the CCK-8 method. HepG2 cells (Beina Bio) in the logarithmic growth phase were collected, the concentration of cell suspension was adjusted, and then the cells were plated on a 96-well cell culture plate at 50,000 cells/well. The cells were then incubated overnight in a cell incubator (5%, 37° C.), and after 80-90% cell confluence was achieved, test compound at each concentration gradient or vehicle (DMSO) was added after medium change. The resulting mixture was incubated in the cell incubator (5%, 37° C.) for 48 h. After the treatment, the medium in the plate was discarded. The plate was washed twice with PBS, added with CCK-8 working solution (Beyotime) at 100 μL per well, and then incubated at 37° C. for 1.5 h in the dark. Absorbance at OD450 nm mil was measured for each well on a microplate reader, and CC50 value of each compound was analyzed and calculated.

[2] = In vitro metabolic stability, human liver microsome incubation; type: in vitro ADME; details: liver microsomes, 1 mg/mL protein, 37° C., read-out: T1/2 in human liver microsome
Method: (§1) The in vitro metabolic stability of the compounds disclosed herein was determined through incubation of liver microsomes of various species. A proper amount of test compound was added into a liver microsome reaction system (1 mg/mL liver microsome protein, 25 U/mL glucose-6 phosphate dehydrogenase, 1 mM NADP, 6 mM D-glucose 6-phosphate and 5 mM MgCl2), and then the mixture was incubated in a water bath kettle at 37° C. to start reaction. At each time point, 100 μL of the reaction liquid was added into a centrifuge tube containing 400 μL of internal standard working solution (containing a 200 ng/mL solution of dexamethasone, diclofenac, tolbutamide and labetalol in acetonitrile) precooled at 0° C. so as to stop the reaction, and the mixture was then centrifuged at 10,000 g for 10 min at 4° C. The supernatant was collected for LC-MS assay so as to obtain the values of in vitro metabolic half-life of the test compounds in liver microsomes of various species.

[3] = In vitro metabolic stability, rat liver microsome incubation; type: in vitro ADME; details: liver microsomes, 1 mg/mL protein, 37° C., read-out: T1/2 in rat liver microsome
Method: as §1

[4] = In vitro metabolic stability, guinea pig liver microsome incubation; type: in vitro ADME; details: liver microsomes, 1 mg/mL protein, 37° C., read-out: T1/2 in guinea pig liver microsome
Method: as §1

[5] = In vivo pharmacokinetic study in mice; details: mouse, plasma; for bioavailability: 1 mg/kg Po (fasted) vs 1 mg/kg Iv; for AUC(0-t) / Cmax: 1 mg/kg
Description: […] After administration, plasma of mice was collected at specific time points, and the concentration of the compound in the plasma was detected by LC-MS/MS (AB SCIEX Qtrap4500). The PK parameters of the compounds were statistically analyzed and calculated (WinNonlin V5.2, Pharsight) to show the pharmacokinetic properties of the compounds disclosed herein in mice.

T1 sequence (O75116 whole entry): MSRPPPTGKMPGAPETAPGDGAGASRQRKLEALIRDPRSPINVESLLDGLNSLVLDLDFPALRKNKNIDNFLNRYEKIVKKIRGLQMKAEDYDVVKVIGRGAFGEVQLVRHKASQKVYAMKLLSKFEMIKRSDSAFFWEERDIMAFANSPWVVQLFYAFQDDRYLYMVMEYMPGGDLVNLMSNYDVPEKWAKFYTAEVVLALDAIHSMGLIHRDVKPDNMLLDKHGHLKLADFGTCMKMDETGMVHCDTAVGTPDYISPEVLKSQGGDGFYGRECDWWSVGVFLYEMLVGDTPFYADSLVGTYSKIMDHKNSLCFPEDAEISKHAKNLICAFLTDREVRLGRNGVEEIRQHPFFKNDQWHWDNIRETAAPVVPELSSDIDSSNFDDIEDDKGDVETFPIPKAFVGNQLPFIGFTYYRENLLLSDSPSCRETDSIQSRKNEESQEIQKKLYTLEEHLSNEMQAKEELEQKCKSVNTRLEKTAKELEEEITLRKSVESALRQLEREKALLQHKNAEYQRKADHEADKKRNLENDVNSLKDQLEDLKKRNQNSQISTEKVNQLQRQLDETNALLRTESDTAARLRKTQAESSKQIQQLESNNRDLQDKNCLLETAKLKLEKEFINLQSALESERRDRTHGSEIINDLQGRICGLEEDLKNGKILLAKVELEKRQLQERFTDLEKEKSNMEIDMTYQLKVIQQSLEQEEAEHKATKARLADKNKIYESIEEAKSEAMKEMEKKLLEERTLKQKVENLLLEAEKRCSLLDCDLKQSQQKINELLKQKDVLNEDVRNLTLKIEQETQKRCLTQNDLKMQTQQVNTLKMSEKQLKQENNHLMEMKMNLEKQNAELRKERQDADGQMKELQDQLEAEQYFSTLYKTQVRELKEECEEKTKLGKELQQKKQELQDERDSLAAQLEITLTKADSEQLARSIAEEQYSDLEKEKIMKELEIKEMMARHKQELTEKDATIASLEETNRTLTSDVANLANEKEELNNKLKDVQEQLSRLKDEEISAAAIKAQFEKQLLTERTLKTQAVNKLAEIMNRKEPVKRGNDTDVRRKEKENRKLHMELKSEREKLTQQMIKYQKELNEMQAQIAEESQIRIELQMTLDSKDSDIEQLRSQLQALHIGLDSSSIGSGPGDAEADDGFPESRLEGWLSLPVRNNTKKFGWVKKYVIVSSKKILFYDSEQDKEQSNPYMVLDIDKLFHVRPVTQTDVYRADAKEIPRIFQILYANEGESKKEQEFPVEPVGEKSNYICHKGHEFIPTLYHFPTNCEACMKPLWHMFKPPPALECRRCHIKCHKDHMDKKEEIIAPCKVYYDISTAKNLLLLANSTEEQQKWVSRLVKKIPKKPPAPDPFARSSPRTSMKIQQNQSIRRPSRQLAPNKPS
T2 sequence (Q13464 whole entry): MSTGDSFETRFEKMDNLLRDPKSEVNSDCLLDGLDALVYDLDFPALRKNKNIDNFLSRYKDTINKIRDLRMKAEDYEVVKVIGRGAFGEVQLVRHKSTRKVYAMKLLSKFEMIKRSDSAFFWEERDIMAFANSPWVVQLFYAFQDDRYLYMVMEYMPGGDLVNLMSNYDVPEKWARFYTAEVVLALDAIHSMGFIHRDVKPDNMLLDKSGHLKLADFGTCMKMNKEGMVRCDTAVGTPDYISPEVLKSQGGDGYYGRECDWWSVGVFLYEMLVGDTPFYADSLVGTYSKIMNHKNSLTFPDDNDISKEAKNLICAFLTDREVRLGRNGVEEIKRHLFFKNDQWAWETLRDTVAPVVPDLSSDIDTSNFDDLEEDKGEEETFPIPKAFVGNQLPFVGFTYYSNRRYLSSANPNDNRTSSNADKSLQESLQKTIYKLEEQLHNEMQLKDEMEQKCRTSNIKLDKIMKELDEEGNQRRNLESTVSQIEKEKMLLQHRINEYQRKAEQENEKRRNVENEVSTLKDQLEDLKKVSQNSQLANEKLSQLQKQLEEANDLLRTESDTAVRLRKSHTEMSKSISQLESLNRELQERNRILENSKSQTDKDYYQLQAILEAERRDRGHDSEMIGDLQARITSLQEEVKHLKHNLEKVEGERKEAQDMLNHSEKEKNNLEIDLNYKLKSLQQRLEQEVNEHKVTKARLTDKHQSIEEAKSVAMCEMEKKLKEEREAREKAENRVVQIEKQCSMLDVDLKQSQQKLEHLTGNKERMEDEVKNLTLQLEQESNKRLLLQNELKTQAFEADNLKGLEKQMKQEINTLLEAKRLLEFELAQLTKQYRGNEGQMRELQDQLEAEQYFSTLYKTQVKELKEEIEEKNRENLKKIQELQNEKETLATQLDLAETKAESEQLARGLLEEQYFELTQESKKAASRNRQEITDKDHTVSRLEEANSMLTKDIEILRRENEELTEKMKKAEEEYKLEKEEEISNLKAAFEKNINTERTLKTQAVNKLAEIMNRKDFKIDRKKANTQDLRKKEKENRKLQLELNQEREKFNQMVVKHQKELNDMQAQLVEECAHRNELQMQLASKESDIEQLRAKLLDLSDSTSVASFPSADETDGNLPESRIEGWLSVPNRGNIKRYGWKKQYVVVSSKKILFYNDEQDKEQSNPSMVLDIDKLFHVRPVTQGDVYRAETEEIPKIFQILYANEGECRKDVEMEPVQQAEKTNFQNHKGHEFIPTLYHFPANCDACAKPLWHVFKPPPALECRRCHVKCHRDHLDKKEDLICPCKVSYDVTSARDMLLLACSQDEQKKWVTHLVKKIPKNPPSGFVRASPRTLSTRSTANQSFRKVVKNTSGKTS

SMILES	pIC50 (ROCK2 kinase)	pIC50 (ROCK1 kinase)	half-life [2] [h]	half-life [3] [h]	half-life [4] [h]	bioavailability [5] [%]	AUC(0-t) ([5]; Iv) [ng·h/mL]	Cmax ([5]; Iv) [ng/mL]	AUC(0-t) ([5]; Po (fasted)) [ng·h/mL]	Cmax ([5]; Po (fasted)) [ng/mL]	CC50 at 48 h [1] [µM]
Cc1nc(Nc2ccc(-c3cn[nH]c3)cc2)nc(N2CCc3cc(C(=O)N4CC(F)(F)C4)n(C)c3C2)n1 [Compound L044]	6.30 to 7.30		7.32	3.49	2.83	54.8	787	594	431	109	58.1
Cc1nc(Nc2ccc(-c3cn[nH]c3)cc2)nc(N2CCc3cc(C(=O)N4CC(C#N)C4)n(C)c3C2)n1 [Compound L050, 1-(6-(4-((4-(1H-pyrazol-4-yl)phenyl)amino)-6-methyl-1,3,5-triazin-2-yl)-1-methyl-4,5,6,7-tetrahydro-1H-pyrrolo[2,3-c]pyridin-2-carbonyl)azetidine-3-carbonitrile]	6.30 to 7.30	< 5.35	4.32	1.03	1.07						> 100
Cn1c(C(=O)N2CC(F)(F)C2)cc2c1CN(c1nc(C#N)cc(Nc3ccc(-c4cn[nH]c4)cc3)n1)CC2 [Compound L042]	6.30 to 7.30	< 5.35	7.3	5.75	5.81						27.9
Cn1c(C(=O)N2CC(F)(F)C2)cc2c1CN(c1nc(F)cc(Nc3ccc(-c4cn[nH]c4)cc3)n1)CC2 [Compound L030, (6-(4-((4-(1H-pyrazol-4-yl)phenyl)amino)-6-fluoropyrimidin-2-yl)-1-methyl-4,5,6,7-tetrahydro-1H-pyrrolo[2,3-c]pyridin-2-yl)(3,3-difluoroazetidin-1-yl)methanone]	6.30 to 7.30	< 5.35	3.46	2.64	0.969	30.6	726	1120	225	60	> 100
Cn1c(C(=O)N2CC(C(F)(F)F)C2)cc2c1CN(c1nccc(Nc3ccc(-c4cn[nH]c4)cc3)n1)CC2 [Compound L033]	≥ 7.30	< 5.35	1.55	1.14	0.837						> 100
Cn1c(C(=O)N2CC(F)(F)C2)cc2c1CN(c1nc(Nc3ccc(-c4cn[nH]c4)cc3)c3cccn3n1)CC2 [Compound L057, (6-(4-((4-(1H-pyrazol-4-yl)phenyl)amino)pyrrolo[2,1-f][1,2,4]triazin-2-yl)-1-methyl-4,5,6,7-tetrahydro-1H-pyrrolo[2,3-c]pyridin-2-yl)(3,3-difluoroazetidin-1-yl)methanone]	6.30 to 7.30	< 5.35	3.17	0.759	2.18						> 100
Cn1c(C(=O)N2CC(F)(F)C2)cc2c1CN(c1nc(CC#N)nc(Nc3ccc(-c4cn[nH]c4)cc3)n1)CC2 [Compound L051, 2-(4-((4-(1H-pyrazol-4-yl)phenyl)amino)-6-(2-(3,3-difluoroazetidin-1-carbonyl)-1-methyl-1,4,5,7-tetrahydro-6H-pyrrolo[2,3-c]pyridin-6-yl)-1,3,5-triazin-2-yl)acetonitrile]	6.30 to 7.30	< 5.35	4.82	1.08	0.84						> 100
Cn1c(C(=O)OCC(F)(F)F)cc2c1CN(c1nccc(Nc3ccc(-c4cn[nH]c4)cc3)n1)CC2 [Compound L032, 2,2,2-trifluoroethyl 6-(4-((4-(1H-pyrazol-4-yl)phenyl)amino)pyrimidin-2-yl)-1-methyl-4,5,6,7-tetrahydro-1H-pyrrolo[2,3-c]pyridine-2-carboxylate]	6.30 to 7.30	< 5.35	1.35	0.708	0.563						28.4

More lines, main results first:

pIC50 (ROCK2 kinase)	pIC50 (ROCK1 kinase)	half-life [2] [h]	half-life [3] [h]	half-life [4] [h]	bioavailability [5] [%]	AUC(0-t) ([5]; Iv) [ng·h/mL]	Cmax ([5]; Iv) [ng/mL]	AUC(0-t) ([5]; Po (fasted)) [ng·h/mL]	Cmax ([5]; Po (fasted)) [ng/mL]	SMILES	CC50 at 48 h [1] [µM]
≥ 7.30	< 5.35	1.59	1.16	0.969	54	266	463	144	64.5	Cn1c(C(=O)N2CC(C(F)F)C2)cc2c1CN(c1nccc(Nc3ccc(-c4cn[nH]c4)cc3)n1)CC2 [Compound L060, (6-(4-((4-(1H-pyrazol-4-yl)phenyl)amino)pyrimidin-2-yl)-1-methyl-4,5,6,7-tetrahydro-1H-pyrrolo[2,3-c]pyridin-2-yl)(3-(difluoromethyl)azetidin-1-yl)methanone]	> 100
≥ 7.30	< 5.35	1.01	0.879	0.701						Cn1c(C(=O)N2CC(C#N)C2)cc2c1CN(c1ncc(F)c(Nc3ccc(-c4cn[nH]c4)cc3)n1)CC2 [Compound L056, 1-(6-(4-((4-(1H-pyrazol-4-yl)phenyl)amino)-5-fluoropyrimidin-2-yl)-1-methyl-4,5,6,7-tetrahydro-1H-pyrrolo[2,3-c]pyridin-2-carbonyl)azetidine-3-carbonitrile]	> 100
≥ 7.30	< 5.35	3.95	1.02	0.473						COc1cnc(N2CCc3cc(C(=O)N4CC(F)(F)C4)n(C)c3C2)nc1Nc1ccc(-c2cn[nH]c2)cc1 [Compound L026, (6-(4-((4-(1H-pyrazol-4-yl)phenyl)amino)-5-methoxypyrimidin-2-yl)-1-methyl-4,5,6,7-tetrahydro-1H-pyrrolo[2,3-c]pyridin-2-yl)(3,3-difluoroazetidin-1-yl)methanone]	> 100
≥ 7.30	< 5.35	3.11	1.21	0.751	12.2	872	2570	106	41.3	Cn1c(C(=O)NCC(F)(F)F)cc2c1CN(c1nccc(Nc3ccc(-c4cn[nH]c4)cc3)n1)CC2 [Compound L017, 6-(4-((4-(1H-pyrazol-4-yl)phenyl)amino)pyrimidin-2-yl)-1-methyl-N-(2,2,2-trifluoroethyl)-4,5,6,7-tetrahydro-1H-pyrrolo[2,3-c]pyridine-2-carboxamide]	33.4
